Experimental data reported in article PMC11651181, “Discovery of 6α-Thiazolylcarboxamidonaltrexamine Derivative (NTZ) as a Potent and Central Nervous System Penetrant Opioid Receptor Modulator with Drug-like Properties for Potential Treatment of Opioid Use Disorder” (ACS Pharmacology & Translational Science, 2024).
“Also recorded” adds a separate entry of the source. Counter-ions that a name gives are not always drawn.

Experiments:
μ opioid receptor (MOR) = target: T1, μ opioid receptor (MOR) (Mus musculus, UniProt P42866); assay: Competitive radioligand binding assay, MOR
T1 construct: expressed in transfected cells; host or cells: CHO (mMOR-CHO), membrane preparation
Method: (§1) The competition binding assay was performed using monoclonal mouse opioid receptors expressed in CHO cell lines (monoclonal human δ opioid receptor was used for the DOR assay).
(§2) The bound radioligand was separated using a Brandel harvester. Specific binding to the MOR, KOR, and DOR was calculated by subtracting the binding observed in the presence of 5 μM naltrexone, U50488, and SNC80, respectively, from the binding in their absence. Relative affinity values (IC50) were determined by fitting displacement binding inhibition data to a nonlinear regression model using GraphPad Prism 8.0 (GraphPad Software, San Diego, CA). The % inhibition was calculated using the formula: % inhibition = 100% - [(binding with the tested compound - nonspecific binding)/specific binding] × 100%. The IC50 values were converted to Ki values using the Cheng-Prusoff equation: Ki = IC50/ [1 + ([L*]/KD)], where [L*] is the concentration of the radioligand and KD is the KD of the radioligand.[68]

δ opioid receptor (DOR) = target: T2, δ opioid receptor (DOR) (Homo sapiens, UniProt P41143); assay: Competitive radioligand binding assay, DOR; settings: for Selectivity δ/μ: ratio of Ki values
T2 construct: expressed in transfected cells; host or cells: CHO (hDOR-CHO), membrane preparation
Method: as §1, §2

κ opioid receptor (KOR) = target: T3, κ opioid receptor (KOR) (Mus musculus, UniProt P33534); assay: Competitive radioligand binding assay, KOR; settings: for Selectivity κ/μ: ratio of Ki values
T3 construct: expressed in transfected cells; host or cells: CHO (mKOR-CHO), membrane preparation
Method: as §1, §2

MOR [1] = target: T4, MOR (Mus musculus, UniProt P42866); assay: MOR [35S]GTPγS functional assay; format: biochemical; settings: for Emax: read-out: MOR [35S]GTPγS Binding %Emax of DAMGO, relative to 3 μM DAMGO, mean ± SEM
T4 construct: expressed in transfected cells; host or cells: CHO (MOR-CHO), membrane preparation
Method: (§3) The [^35S]GTPγS functional assay was used to assess the efficacy of compounds at the MOR, KOR, and DOR. In this assay, 10 μg of MOR-CHO/KOR-CHO/DOR-CHO membrane protein was incubated in 500 μL of TME with 100 mM NaCl, 20 μM GDP, 0.1 nM [^35S]GTPγS, and varying concentrations of the compound for 1.5 h in a 30 °C water bath. Protein concentration was adjusted using the Bradford protein assay. […] After incubation, bound radioactivity was separated by filtration through GF/B glass fiber filters and measured by liquid scintillation counting. All assays were performed in duplicate and repeated at least three times. Net stimulated [35S]GTPγS binding was calculated as agonist-stimulated minus basal binding.

Swiss Webster mice = assay: Warm-water tail immersion assay, antagonism of morphine-induced antinociception; settings: for Antagonism of morphine's antinociception, in words: single dose of 10 mg/kg s.c. in the presence of morphine (10 mg/kg), n = 6; for AD50 (95% CL) for counteracting morphine-induced antinociception: mice, s.c., given 5 min before morphine
KOR = target: T5, KOR (Mus musculus, UniProt P33534); assay: KOR [35S]GTPγS functional assay; format: biochemical
T5 construct: expressed in transfected cells; host or cells: CHO (KOR-CHO), membrane preparation
Method: as §3

DOR = target: T6, DOR (Homo sapiens, UniProt P41143); assay: DOR [35S]GTPγS functional assay; format: biochemical
T6 construct: expressed in transfected cells; host or cells: CHO (DOR-CHO), membrane preparation
Method: as §3

MOR [2] = target: T4, MOR; assay: MOR calcium flux assay in Gαqi5-transfected mMOR-CHO cells; format: cell-based

Row | SMILES | Ki (μ opioid receptor (MOR)) [nM] | Ki (δ opioid receptor (DOR)) [nM] | Selectivity δ/μ (δ opioid receptor (DOR)) | Ki (κ opioid receptor (KOR)) [nM] | Selectivity κ/μ (κ opioid receptor (KOR)) | EC50 (MOR [1]) [nM] | Emax (MOR [1]) [%] | Antagonism of morphine's antinociception, in words (Swiss Webster mice) | EC50 (KOR) [nM] | Emax (KOR; relative to 3 μM U50488H, mean ± SEM, read-out: KOR [35S]GTPγS binding % Emax of U50488H) [%] | EC50 (DOR) [nM] | Emax (DOR; relative to 3 μM SNC80, mean ± SEM, read-out: DOR [35S]GTPγS binding % Emax of SNC80) [%] | IC50 (MOR [2]) [nM] | Agonistic activity in increasing intracellular calcium, in words (MOR [2]; compared to full MOR agonist DAMGO) | AD50 (95% CL) for counteracting morphine-induced antinociception (Swiss Webster mice)
1 | O=C(Cc1ccns1)N[C@H]1CC[C@@]2(O)[C@H]3Cc4ccc(O)c5c4[C@@]2(CCN3CC2CC2)[C@H]1O5 [Compound 2, 17-Cyclopropylmethyl-3,14β-dihydroxy-4,5α-epoxy-6α-(5′-isothiazolylacetamido)-morphinan hydrochloride] | 0.55 ± 0.06 | 13.9 ± 1.62 | 25 | 1.49 ± 0.13 | 3 | 4.62 ± 0.44 | 18.2 ± 1.06 | – | – | – | – | – | – | – | –
2 | O=C(N[C@H]1CC[C@@]2(O)[C@H]3Cc4ccc(O)c5c4[C@@]2(CCN3CC2CC2)[C@H]1O5)c1cncs1 [Compound 3, 17-Cyclopropylmethyl-3,14β-dihydroxy-4,5α-epoxy-6α-(5′-thiazolylcarboxamido)-morphinan hydrochloride] | 0.35 ± 0.02 | 16.8 ± 3.88 | 48 | 0.97 ± 0.11 | 3 | 2.77 ± 0.51 | 15.9 ± 1.84 | – | – | – | – | – | – | – | –
3 | O=C(Cc1cncs1)N[C@H]1CC[C@@]2(O)[C@H]3Cc4ccc(O)c5c4[C@@]2(CCN3CC2CC2)[C@H]1O5 [Compound 4, 17-Cyclopropylmethyl-3,14β-dihydroxy-4,5α-epoxy-6α-(5′-thiazolylacetamido)-morphinan hydrochloride] | 0.57 ± 0.02 | 8.5 ± 0.56 | 15 | 2.08 ± 0.39 | 4 | 5.87 ± 1.26 | 17 ± 0.89 | – | – | – | – | – | – | – | –
4 | O=C(CCc1cncs1)N[C@H]1CC[C@@]2(O)[C@H]3Cc4ccc(O)c5c4[C@@]2(CCN3CC2CC2)[C@H]1O5 [Compound 5, 17-Cyclopropylmethyl-3,14β-dihydroxy-4,5α-epoxy-6α-[(3′-(thiazolyl-5′′-yl)propan-amido]morphinan hydrochloride] | 0.71 ± 0.08 | 11.6 ± 1.24 | 16 | 2.04 ± 0.38 | 3 | 2.76 ± 0.58 | 10.7 ± 1.02 | – | – | – | – | – | – | – | –
5 | O=C(Cc1nccs1)N[C@H]1CC[C@@]2(O)[C@H]3Cc4ccc(O)c5c4[C@@]2(CCN3CC2CC2)[C@H]1O5 [Compound 7, 17-Cyclopropylmethyl-3,14β-dihydroxy-4,5α-epoxy-6α-(2′-thiazolylacetamido)-morphinan hydrochloride] | 0.65 ± 0.05 | 1.3 ± 0.08 | 2 | 2.26 ± 0.5 | 3 | 3.87 ± 1.29 | 10.2 ± 0.61 | significantly antagonized | – | – | – | – | – | – | –
6 | O=C(CCc1nccs1)N[C@H]1CC[C@@]2(O)[C@H]3Cc4ccc(O)c5c4[C@@]2(CCN3CC2CC2)[C@H]1O5 [Compound 8, 17-Cyclopropylmethyl-3,14β-dihydroxy-4,5α-epoxy-6α-[(3′-(thiazolyl-2′′-yl)propan-amido]morphinan hydrochloride] | 0.45 ± 0.06 | 1.18 ± 0.06 | 3 | 2 ± 0.42 | 4 | 3.4 ± 0.6 | 13.4 ± 0.41 | significantly antagonized | – | – | – | – | – | – | –
7 | O=C(N[C@@H]1CC[C@@]2(O)[C@H]3Cc4ccc(O)c5c4[C@@]2(CCN3CC2CC2)[C@H]1O5)c1ccns1 [Compound 9, 17-Cyclopropylmethyl-3,14β-dihydroxy-4,5α-epoxy-6β-(5′-isothiazolylcarboxamido)-morphinan hydrochloride] | 0.32 ± 0.03 | 67.8 ± 7.17 | – | 1.22 ± 0.32 | 4 | 0.71 ± 0.14 | 9.66 ± 1.37 | significantly antagonized | 7.06 ± 0.18 | 49.9 ± 1.99 | 58.1 ± 10.3 | 44.4 ± 4.15 | 6.53 ± 2.28 | no apparent agonism; also recorded: none of them showed any significant agonistic activity | 4.77 (3.59–6.34) mg/kg
8 | O=C(Cc1ccns1)N[C@@H]1CC[C@@]2(O)[C@H]3Cc4ccc(O)c5c4[C@@]2(CCN3CC2CC2)[C@H]1O5 [Compound 10, 17-Cyclopropylmethyl-3,14β-dihydroxy-4,5α-epoxy-6β-(5′-isothiazolylacetamido)-morphinan hydrochloride] | 0.59 ± 0.09 | 34 ± 4.18 | 58 | 1.14 ± 0.05 | 2 | 1.16 ± 0.15 | 9.32 ± 0.67 | significantly antagonized | – | – | – | – | – | – | 13.12 (2.34–73.39) mg/kg
9 | O=C(N[C@@H]1CC[C@@]2(O)[C@H]3Cc4ccc(O)c5c4[C@@]2(CCN3CC2CC2)[C@H]1O5)c1cncs1 [Compound 11, 17-Cyclopropylmethyl-3,14β-dihydroxy-4,5α-epoxy-6β-(5′-thiazolylcarboxamido)-morphinan hydrochloride] | 0.53 ± 0.04 | 77.9 ± 16.1 | 147 | 1.41 ± 0.24 | 3 | 1.58 ± 0.44 | 13.7 ± 1.32 | significantly antagonized | – | – | – | – | – | – | –
10 | O=C(Cc1cncs1)N[C@@H]1CC[C@@]2(O)[C@H]3Cc4ccc(O)c5c4[C@@]2(CCN3CC2CC2)[C@H]1O5 [Compound 12, 17-Cyclopropylmethyl-3,14β-dihydroxy-4,5α-epoxy-6β-(5′-thiazolylacetamido)-morphinan hydrochloride] | 0.39 ± 0.04 | 17.5 ± 1.91 | 44 | 0.89 ± 0.05 | 2 | 1.24 ± 0.25 | 13 ± 0.76 | – | – | – | – | – | – | – | –
11 | O=C(CCc1cncs1)N[C@@H]1CC[C@@]2(O)[C@H]3Cc4ccc(O)c5c4[C@@]2(CCN3CC2CC2)[C@H]1O5 [Compound 13, 17-Cyclopropylmethyl-3,14β-dihydroxy-4,5α-epoxy-6β-[(3′-(thiazolyl-5′′-yl)propan-amido]morphinan hydrochloride] | 0.49 ± 0.07 | 31.5 ± 2.78 | 65 | 1.2 ± 0.25 | 2 | 1.39 ± 0.36 | 10.5 ± 0.92 | – | – | – | – | – | – | – | –
12 | O=C(Cc1nccs1)N[C@@H]1CC[C@@]2(O)[C@H]3Cc4ccc(O)c5c4[C@@]2(CCN3CC2CC2)[C@H]1O5 [Compound 15, 17-Cyclopropylmethyl-3,14β-dihydroxy-4,5α-epoxy-6β-(2′-thiazolylacetamido)-morphinan hydrochloride] | 0.35 ± 0.04 | 26.4 ± 2.65 | 76 | 1.89 ± 0.77 | 5 | 0.78 ± 0.18 | 11 ± 0.43 | – | – | – | – | – | – | – | –
13 | O=C(CCc1nccs1)N[C@@H]1CC[C@@]2(O)[C@H]3Cc4ccc(O)c5c4[C@@]2(CCN3CC2CC2)[C@H]1O5 [Compound 16, 17-Cyclopropylmethyl-3,14β-dihydroxy-4,5α-epoxy-6β-[(3′-(thiazolyl-2′′-yl)propan-amido]morphinan hydrochloride] | 0.35 ± 0.03 | 18.8 ± 3.26 | 54 | 0.67 ± 0.08 | 2 | 1.75 ± 0.46 | 12.1 ± 0.67 | – | – | – | – | – | – | – | –
